Patent publication US9346780B2, “Process for producing dihydro-2H-pyran derivatives” (OKINAWA INSTITUTE OF SCIENCE AND TECHNOLOGY SCHOOL …, priority 2012, dated 2016)

Experiment: Cytotoxicity, K562 cell growth inhibition (Cell Counting Kit-8 / WST-8)
Format: cell-based
Settings: human; K562 cells; 6-48 hrs incubation; WST-8 absorbance at 450 nm; concentration inhibiting the cell growth by 50%
Protocol: K562 cells (American Type Culture Collection) were cultured in a culture medium containing 10% (v/v) fetal calf serum (FCS) (manufactures by Sigma) to logarithmic phase. The cells were seeded in 96-well microtiter plate at a density of 5000 cells/well in 100 μL cell culture medium and incubated at 37° C. and 5% CO2 in a humidified incubator overnight. The test compounds of various concentrations were added in a well at 10 fold concentration in 1/10 volume of medium without FCS. After 6-48 hrs incubation at 37° C. in the CO2 incubator, 10 μL solution of the viable cell counting reagent, Cell counting Kit-8 (5 mmol/L WST-8, 0.2 mmol/L 1-Methoxy PMS, 150 mmol/L NaCl) (manufactured by Dojindo) was added to each well, and reacted for 1 to 4 hours in the CO2 incubator. After the incubation, an absorbance of formazan, generated by reduction of WST-8 was determined at 450 nm using a microplate reader.
The assay readout is correlated with the viable cell numbers. Small values correspond to high inhibition and larger values to low inhibition of the cell growth. To determine IC50 values (i.e. the concentration inhibiting the cell growth by 50%) of the compounds of formula II, IV and V, several assays were made with a range of concentrations chosen empirically to give low, high and intermediate inhibition of the growth and determined using the curve fitting software.
IC50 values can be converted logarithmically to pIC50 values (−log IC50), in which higher values indicate exponentially greater potency. The IC50 value is not an absolute value but depends on experimental conditions e.g. concentrations employed.

SMILES | IC50 [µM]
O=C(OCc1ccccc1)C1=CC(c2ccccc2)CC(O)(C(=O)OCc2ccccc2)O1 (stereo not drawn) | 149
CCOC(=O)C1=CC(C2CCCCC2)CC(O)(C(=O)OCC)O1 (stereo not drawn) | 58
CCOC(=O)C1=CC(c2ccc(Br)cc2)CC(O)(C(=O)OCC)O1 (stereo not drawn) | 80
COC(=O)C1=CC(c2ccc([N+](=O)[O-])cc2)CC(O)(C(=O)OCc2ccccc2)O1 (stereo not drawn) | 81
CCOC(=O)C1=CC(c2ccc([N+](=O)[O-])cc2)CC(Nc2ccc(OC)cc2)(C(=O)OCC)O1 (stereo not drawn) | 12
CCOC(=O)C1=CC(c2ccc([N+](=O)[O-])cc2)CC(F)(C(=O)OCC)O1 (stereo not drawn) | 11
CCOC(=O)C1=CC(c2ccc(Cl)cc2)CC(F)(C(=O)OCC)O1 (stereo not drawn) | 52
CCOC(=O)C1=CC(c2ccc(Br)cc2)CC(F)(C(=O)OCC)O1 (stereo not drawn) | 53
CCOC(=O)C1=CC(c2ccco2)CC(F)(C(=O)OCC)O1 (stereo not drawn) | 135
CCOC(=O)C1=CC(c2ccc([N+](=O)[O-])cc2)CC(C(=O)OCC)=NN1 (stereo not drawn) | 148
O=C(OCc1ccccc1)[C@]1(O)C[C@H](c2ccccc2)C[C@](O)(C(=O)OCc2ccccc2)[C@H]1[N+](=O)[O-] | 54
COC(=O)[C@@]1(O)C[C@@H](c2ccc([N+](=O)[O-])cc2)C[C@@](O)(C(=O)OCc2ccccc2)[C@@H]1[N+](=O)[O-] | 90
CCOC(=O)[C@]1(O)C[C@H](c2ccc(C(F)(F)F)cc2)C[C@](O)(C(=O)OCC)[C@H]1[N+](=O)[O-] | 144
CCOC(=O)[C@]1(O)C[C@H](c2ccc(Br)cc2)C[C@](O)(C(=O)OCC)[C@H]1[N+](=O)[O-] | 144
CCOC(=O)[C@]1(O)C[C@H](C2CCCCC2)C[C@](O)(C(=O)OCC)[C@H]1[N+](=O)[O-] | 105
